Reference: PMC4286194 (Biochemical Journal, 2015)

How the values were obtained:
PKB alpha = PKB alpha (Homo sapiens, UniProt P31749); test: Kinase profiling; format: biochemical
MNK2 = MNK2 (Homo sapiens, UniProt Q9HBH9); test: Kinase profiling; format: biochemical
MKK2 = MKK2 (Homo sapiens, UniProt P36507); test: Kinase profiling; format: biochemical
IRR = IRR (Homo sapiens, UniProt P14616); test: Kinase profiling; format: biochemical
GCK = target: T1, GCK (Homo sapiens, UniProt Q12851); test: Kinase profiling; format: biochemical
T1 sequence (Q12851 1-820): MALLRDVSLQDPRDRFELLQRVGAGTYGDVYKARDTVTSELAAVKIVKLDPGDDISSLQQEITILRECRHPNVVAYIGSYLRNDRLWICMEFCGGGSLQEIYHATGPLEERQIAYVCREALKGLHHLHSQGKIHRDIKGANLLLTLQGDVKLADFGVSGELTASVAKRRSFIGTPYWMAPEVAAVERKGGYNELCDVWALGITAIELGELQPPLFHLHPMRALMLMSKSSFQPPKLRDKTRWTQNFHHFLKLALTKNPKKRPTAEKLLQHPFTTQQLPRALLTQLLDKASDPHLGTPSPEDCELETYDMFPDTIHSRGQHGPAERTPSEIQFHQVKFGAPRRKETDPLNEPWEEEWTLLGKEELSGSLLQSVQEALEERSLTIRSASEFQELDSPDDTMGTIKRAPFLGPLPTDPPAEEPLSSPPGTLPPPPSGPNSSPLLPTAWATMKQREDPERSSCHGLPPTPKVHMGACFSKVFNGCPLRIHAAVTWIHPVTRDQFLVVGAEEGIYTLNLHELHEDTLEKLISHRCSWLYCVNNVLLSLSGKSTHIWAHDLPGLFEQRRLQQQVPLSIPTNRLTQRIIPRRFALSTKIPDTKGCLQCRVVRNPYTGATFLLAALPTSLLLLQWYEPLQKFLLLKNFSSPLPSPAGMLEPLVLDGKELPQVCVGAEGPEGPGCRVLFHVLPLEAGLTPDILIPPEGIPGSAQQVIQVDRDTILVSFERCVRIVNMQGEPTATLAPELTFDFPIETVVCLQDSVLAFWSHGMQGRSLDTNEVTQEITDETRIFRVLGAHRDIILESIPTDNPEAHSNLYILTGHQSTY

MARK1 = MARK1 (Homo sapiens, UniProt Q9P0L2); test: Kinase profiling; format: biochemical
MARK1, sequence (Q9P0L2 whole entry): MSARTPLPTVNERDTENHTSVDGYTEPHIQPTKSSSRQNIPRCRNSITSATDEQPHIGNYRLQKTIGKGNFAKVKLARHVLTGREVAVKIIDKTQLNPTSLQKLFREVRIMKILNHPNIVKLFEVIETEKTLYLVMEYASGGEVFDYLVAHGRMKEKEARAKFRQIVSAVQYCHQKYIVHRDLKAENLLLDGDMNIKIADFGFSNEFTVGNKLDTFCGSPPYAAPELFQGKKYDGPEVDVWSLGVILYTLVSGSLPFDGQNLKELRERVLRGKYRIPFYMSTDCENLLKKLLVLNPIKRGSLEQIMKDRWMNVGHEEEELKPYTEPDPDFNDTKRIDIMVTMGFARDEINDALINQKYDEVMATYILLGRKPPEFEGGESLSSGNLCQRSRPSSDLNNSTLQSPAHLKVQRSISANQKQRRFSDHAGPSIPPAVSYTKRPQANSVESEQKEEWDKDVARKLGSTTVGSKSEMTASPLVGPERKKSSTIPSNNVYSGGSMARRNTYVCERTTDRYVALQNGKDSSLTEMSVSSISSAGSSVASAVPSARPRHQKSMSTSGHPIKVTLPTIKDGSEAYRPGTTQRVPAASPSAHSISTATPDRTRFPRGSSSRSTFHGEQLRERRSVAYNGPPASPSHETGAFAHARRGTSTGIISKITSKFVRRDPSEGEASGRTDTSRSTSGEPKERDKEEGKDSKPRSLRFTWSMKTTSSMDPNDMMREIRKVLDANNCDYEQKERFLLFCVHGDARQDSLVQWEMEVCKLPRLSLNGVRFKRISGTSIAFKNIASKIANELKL

[1] = tested on: RAW264.7 macrophages expressing HA-SIK2-WT; test: IL-10 and Nurr77 mRNA in macrophages expressing wild-type SIK2; format: cell-based; settings: cells expressing wild-type SIK2; drug 1 h, LPS 1 h
Protocol: Primary macrophages were generated by differentiating bone marrow from 6- to 12-week-old C57BL/6 mice for 7 days in Dulbecco's modified Eagle's medium (DMEM) supplemented with 5 ng/ml recombinant M-CSF (R&D systems), 2 mM glutamine, 10% FBS, penicillin and streptomycin. Bone-marrow-derived macrophages were differentiated on non-tissue-culture-treated plastic, harvested and replated at a density of 100000 cells/cm^2 per 0.1 ml on tissue culture-treated plastic in fresh medium before stimulation on day 8. RAW264.7 cells were cultured in DMEM containing 10% FBS, 2 mM glutamine and penicillin and streptomycin. […] Cells were treated for 1 h with or without inhibitors and then stimulated for up to 24 h with either 1 μg/ml Pam3CSK4 or 100 ng/ml LPS.
mRNA was extracted from cells using the MicroElute Total RNA kit following the manufacturers’ instructions (Omega Bio-Tek). cDNA was generated from 0.5 μg of total RNA using the iScript cDNA synthesis kit and quantified by quantitative real-time PCR (qPCR) using the SsoFast EvaGreen Supermix on a CFX384 real-time system (Bio-Rad Laboratories). The relative expression of each gene was calculated from CT values using the Pfaffl method and was normalized against the mRNA levels of housekeeping genes including 18S RNA and GAPDH.

ERK5 = ERK5 (Homo sapiens, UniProt Q13164); test: Kinase profiling; format: biochemical
ERK5, sequence (Q13164 whole entry): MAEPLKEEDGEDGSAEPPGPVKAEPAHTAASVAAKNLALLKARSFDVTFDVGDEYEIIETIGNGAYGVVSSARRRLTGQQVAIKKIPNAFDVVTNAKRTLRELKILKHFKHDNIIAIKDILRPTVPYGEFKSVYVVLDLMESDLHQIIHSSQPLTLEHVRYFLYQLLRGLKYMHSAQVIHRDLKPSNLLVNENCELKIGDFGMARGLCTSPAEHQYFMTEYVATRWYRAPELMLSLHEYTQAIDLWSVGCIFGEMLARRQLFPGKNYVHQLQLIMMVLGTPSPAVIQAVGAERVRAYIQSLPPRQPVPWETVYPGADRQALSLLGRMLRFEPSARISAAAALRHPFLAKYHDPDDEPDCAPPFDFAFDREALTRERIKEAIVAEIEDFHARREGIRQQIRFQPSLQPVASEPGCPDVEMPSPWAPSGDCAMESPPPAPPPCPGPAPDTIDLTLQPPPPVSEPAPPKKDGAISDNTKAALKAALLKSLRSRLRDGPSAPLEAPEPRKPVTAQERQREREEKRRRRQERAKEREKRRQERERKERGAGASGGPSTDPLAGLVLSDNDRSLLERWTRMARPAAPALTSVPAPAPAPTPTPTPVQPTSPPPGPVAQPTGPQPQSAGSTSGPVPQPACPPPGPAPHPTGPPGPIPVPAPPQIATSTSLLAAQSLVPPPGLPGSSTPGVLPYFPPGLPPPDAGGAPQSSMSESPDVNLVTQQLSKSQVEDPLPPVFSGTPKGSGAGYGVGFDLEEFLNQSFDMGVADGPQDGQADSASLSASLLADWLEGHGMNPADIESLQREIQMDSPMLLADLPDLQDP

CRTC3 = CRTC3 phosphorylation (immunoprecipitation, immunoblot); format: cell-based; settings: RAW264.7 macrophages, 1 h
Protocol: (§1) Cells were extracted in lysis buffer [50 mM Tris/HCl, pH 7.4, 1 mM EDTA, 1 mM EGTA, 50 mM NaF, 5 mM sodium pyrophosphate, 10 mM sodium β-glycerol 1-phosphate, 1 mM DTT, 1 mM sodium orthovanadate, 0.27 M sucrose, 1% (v/v) Triton X-100, 1 μg/ml aprotinin, 1 μg/ml leupeptin and 1 mM PMSF]. Cell extracts were clarified by centrifugation and protein concentrations were determined using the Bradford assay. To immunoprecipitate endogenous CRTC3, 1 mg of cell extract was incubated with 5 μg of anti-CRTC3 [13] covalently cross-linked on to Protein G–Sepharose. Immune complexes were washed three times with lysis buffer, eluted in 1% SDS and separated by SDS/PAGE. To detect proteins in cell lysates, 20 μg of protein extract was separated by SDS/PAGE. After transfer to PVDF membranes, proteins were detected by immunoblotting and visualized by treating the blots with ECL (GE Healthcare) followed by autoradiography.

CHK1 = target: T2, CHK1 (Homo sapiens, UniProt O14757); test: Kinase profiling; format: biochemical
T2 sequence (O14757 1-476): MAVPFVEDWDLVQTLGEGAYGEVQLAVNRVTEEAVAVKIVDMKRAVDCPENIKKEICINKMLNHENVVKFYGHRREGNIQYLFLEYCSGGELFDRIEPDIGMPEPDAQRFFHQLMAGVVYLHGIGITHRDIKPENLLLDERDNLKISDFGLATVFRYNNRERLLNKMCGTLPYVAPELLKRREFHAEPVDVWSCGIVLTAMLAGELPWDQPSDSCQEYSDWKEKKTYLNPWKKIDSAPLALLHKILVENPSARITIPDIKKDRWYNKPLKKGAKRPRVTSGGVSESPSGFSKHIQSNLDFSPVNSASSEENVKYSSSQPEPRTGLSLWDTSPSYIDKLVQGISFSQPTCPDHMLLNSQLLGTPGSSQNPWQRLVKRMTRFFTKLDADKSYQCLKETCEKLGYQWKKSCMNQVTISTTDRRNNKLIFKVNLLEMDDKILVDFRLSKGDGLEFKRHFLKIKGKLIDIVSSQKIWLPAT

PKA = PKA (Homo sapiens, UniProt P17612); test: Kinase profiling; format: biochemical
SIK2 = SIK2 (Homo sapiens, UniProt Q9H0K1); test: Kinase profiling; format: biochemical
PLK1 = PLK1 (Homo sapiens, UniProt P53350); test: Kinase profiling; format: biochemical
PLK1, sequence (P53350 whole entry): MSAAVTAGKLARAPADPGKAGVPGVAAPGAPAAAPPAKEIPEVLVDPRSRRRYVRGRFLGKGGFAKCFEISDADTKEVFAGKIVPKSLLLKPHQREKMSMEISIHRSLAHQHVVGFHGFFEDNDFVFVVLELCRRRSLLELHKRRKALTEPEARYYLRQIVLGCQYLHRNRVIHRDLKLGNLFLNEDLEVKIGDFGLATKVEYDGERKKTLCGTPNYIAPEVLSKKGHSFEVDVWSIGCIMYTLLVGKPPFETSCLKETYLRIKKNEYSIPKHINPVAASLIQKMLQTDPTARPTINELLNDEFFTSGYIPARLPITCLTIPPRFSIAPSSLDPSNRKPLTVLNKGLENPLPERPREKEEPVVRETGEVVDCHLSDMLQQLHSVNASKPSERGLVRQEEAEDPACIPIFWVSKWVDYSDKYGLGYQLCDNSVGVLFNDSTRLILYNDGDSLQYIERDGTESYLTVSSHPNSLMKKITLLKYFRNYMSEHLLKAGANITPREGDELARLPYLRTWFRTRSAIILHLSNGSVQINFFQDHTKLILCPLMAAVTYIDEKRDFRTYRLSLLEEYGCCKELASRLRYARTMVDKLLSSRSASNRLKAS

[2] = tested on: Bone-marrow-derived macrophages; test: TLR signalling immunoblots (MAPKs, MSK1/2, CREB, IKKs, TBK1); format: cell-based, mouse; settings: for Kinetics of activation of MAPKs including ERK1/2 and p38α/β: 3 μM bosutinib or 0.3 μM dasatinib, LPS or Pam3CSK4; for TLR-stimulated phosphorylation of ERK1/2, JNK1/2, p38α/β MAPKs, MSK1/2, IKKα/β, TBK1 and their direct substrates: 3 μM bosutinib, 0.3 μM dasatinib or 0.5 μM HG-9-91-01
Protocol: as §1

MNK2, sequence (Q9HBH9 whole entry): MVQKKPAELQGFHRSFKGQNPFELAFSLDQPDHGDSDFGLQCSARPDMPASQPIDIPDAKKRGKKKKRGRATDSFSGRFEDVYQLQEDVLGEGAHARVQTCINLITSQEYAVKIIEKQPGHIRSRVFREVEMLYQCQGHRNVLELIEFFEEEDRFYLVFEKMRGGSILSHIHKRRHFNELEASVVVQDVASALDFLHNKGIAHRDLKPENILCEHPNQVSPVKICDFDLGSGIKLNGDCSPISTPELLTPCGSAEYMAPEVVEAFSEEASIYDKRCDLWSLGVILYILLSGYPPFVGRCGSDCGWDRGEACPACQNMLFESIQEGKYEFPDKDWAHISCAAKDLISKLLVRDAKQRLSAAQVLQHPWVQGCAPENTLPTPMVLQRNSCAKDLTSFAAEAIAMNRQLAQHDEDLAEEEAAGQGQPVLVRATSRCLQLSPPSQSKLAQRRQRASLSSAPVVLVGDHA
IRR, sequence (P14616 27-1297): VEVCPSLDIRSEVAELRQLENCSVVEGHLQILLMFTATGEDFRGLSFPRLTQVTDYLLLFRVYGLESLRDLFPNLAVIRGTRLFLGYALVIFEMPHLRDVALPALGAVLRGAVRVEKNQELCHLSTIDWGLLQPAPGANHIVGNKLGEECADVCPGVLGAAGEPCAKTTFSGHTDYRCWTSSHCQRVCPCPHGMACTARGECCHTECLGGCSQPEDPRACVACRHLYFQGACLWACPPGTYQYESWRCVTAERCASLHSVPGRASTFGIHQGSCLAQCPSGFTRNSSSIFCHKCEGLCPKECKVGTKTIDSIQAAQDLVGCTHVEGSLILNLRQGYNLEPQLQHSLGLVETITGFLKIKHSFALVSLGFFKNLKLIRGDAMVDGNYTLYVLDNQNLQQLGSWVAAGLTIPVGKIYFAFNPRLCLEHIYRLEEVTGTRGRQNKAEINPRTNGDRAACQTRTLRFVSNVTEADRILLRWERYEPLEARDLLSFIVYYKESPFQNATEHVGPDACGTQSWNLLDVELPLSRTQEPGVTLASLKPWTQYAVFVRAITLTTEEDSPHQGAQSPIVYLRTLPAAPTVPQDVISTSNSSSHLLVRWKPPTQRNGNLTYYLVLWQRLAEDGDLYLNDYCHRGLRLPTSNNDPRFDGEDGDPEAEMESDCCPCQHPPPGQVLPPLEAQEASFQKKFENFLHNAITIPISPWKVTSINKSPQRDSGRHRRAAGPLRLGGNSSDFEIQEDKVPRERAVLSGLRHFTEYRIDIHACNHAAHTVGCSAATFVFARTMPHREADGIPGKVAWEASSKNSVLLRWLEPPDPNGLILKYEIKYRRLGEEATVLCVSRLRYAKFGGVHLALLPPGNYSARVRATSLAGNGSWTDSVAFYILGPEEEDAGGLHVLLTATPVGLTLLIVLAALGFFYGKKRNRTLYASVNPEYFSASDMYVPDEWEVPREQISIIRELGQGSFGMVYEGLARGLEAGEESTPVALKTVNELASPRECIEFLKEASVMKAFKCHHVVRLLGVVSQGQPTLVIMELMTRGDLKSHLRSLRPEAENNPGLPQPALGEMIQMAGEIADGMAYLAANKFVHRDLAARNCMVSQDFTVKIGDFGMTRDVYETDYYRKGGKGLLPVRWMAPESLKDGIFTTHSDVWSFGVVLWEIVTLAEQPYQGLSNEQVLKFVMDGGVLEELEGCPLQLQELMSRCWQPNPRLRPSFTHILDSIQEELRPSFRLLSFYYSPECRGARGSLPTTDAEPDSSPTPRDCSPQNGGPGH
PKB alpha, sequence (P31749 whole entry): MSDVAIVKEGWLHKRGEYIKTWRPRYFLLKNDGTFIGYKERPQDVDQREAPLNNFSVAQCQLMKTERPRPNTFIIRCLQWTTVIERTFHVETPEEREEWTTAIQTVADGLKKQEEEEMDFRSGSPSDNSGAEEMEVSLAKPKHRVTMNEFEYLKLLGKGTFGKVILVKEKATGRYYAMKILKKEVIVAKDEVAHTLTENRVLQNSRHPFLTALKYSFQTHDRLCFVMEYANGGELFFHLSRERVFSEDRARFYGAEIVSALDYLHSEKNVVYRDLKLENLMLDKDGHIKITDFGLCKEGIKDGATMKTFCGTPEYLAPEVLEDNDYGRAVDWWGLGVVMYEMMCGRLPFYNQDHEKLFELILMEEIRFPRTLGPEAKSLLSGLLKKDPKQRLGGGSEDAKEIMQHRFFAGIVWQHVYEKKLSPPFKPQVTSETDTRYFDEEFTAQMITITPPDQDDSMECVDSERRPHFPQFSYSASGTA
MKK2, sequence (P36507 whole entry): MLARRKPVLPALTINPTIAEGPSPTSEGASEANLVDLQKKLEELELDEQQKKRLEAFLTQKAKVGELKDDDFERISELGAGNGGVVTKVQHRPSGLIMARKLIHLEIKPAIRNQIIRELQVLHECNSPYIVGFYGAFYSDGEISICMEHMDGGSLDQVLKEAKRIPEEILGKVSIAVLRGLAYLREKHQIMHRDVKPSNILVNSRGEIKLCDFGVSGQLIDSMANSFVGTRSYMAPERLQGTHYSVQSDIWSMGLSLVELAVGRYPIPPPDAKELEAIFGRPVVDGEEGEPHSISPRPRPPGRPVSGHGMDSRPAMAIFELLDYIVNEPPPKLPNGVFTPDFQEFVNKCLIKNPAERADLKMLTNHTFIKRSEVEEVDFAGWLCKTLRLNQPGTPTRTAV

| Structure (SMILES) | remaining activity at 1 µM (PKB alpha) | remaining activity at 0.1 µM (MNK2) | remaining activity at 1 µM (MNK2) | remaining activity at 0.1 µM (MKK2) | remaining activity at 1 µM (MKK2) | remaining activity at 0.1 µM (IRR) | remaining activity at 1 µM (IRR) | remaining activity at 0.1 µM (GCK) | remaining activity at 1 µM (GCK) | remaining activity at 0.1 µM (MARK1) | remaining activity at 1 µM (MARK1) | LPS-stimulated CREB-dependent gene transcription including IL-10 and Nurr77 [1] | remaining activity at 0.1 µM (ERK5) | remaining activity at 1 µM (ERK5) | Phosphorylation of CRTC3 at Ser162 and Ser370 (CRTC3) | remaining activity at 0.1 µM (CHK1) | remaining activity at 1 µM (CHK1) | remaining activity at 0.1 µM (PKA) | remaining activity at 1 µM (PKA) | remaining activity at 0.1 µM (SIK2) | also measured |
| --- | --- | --- | --- | --- | --- | --- | --- | --- | --- | --- | --- | --- | --- | --- | --- | --- | --- | --- | --- | --- | --- |
| Cc1nc(Nc2ncc(C(=O)Nc3c(C)cccc3Cl)s2)cc(N2CCN(CCO)CC2)n1 [Dasatinib] | 120 ± 13% | 97 ± 8% | 106 ± 2% | 113 ± 11% | 91% | 89 ± 4% | 90 ± 14% | 95 ± 7% | 56 ± 8% | 115 ± 3% | 127 ± 3% | strongly potentiate | 87 ± 2% | 91 ± 4% | dephosphorylation | 100 ± 6% | 96 ± 6% | 110 ± 12% | 121 ± 27% | 4 ± 1% | remaining activity at 1 µM (SIK2): 2 ± 1%; remaining activity at 0.1 µM (PLK1): 133 ± 18%; Kinetics of activation of MAPKs including ERK1/2 and p38α/β [2]: no effect; TLR-stimulated phosphorylation of ERK1/2, JNK1/2, p38α/β MAPKs, MSK1/2, IKKα/β, TBK1 and their direct substrates [2]: occurred normally |
| COc1cc(Nc2c(C#N)cnc3cc(OCCCN4CCN(C)CC4)c(OC)cc23)c(Cl)cc1Cl [Bosutinib, bosutinib] | 116 ± 30% | 87 ± 6% | 100 ± 9% | 60 ± 3% | 21 ± 4% | 72 ± 5% | 59 ± 1% | 9 ± 2% | 4% | 84 ± 5% | 76 ± 4% | strongly potentiate | 74 ± 6% | 67 ± 10% | dephosphorylation | 91 ± 2% | 57% | 111 ± 16% | 105 ± 7% | 8% | remaining activity at 0.1 µM (PKB alpha; 0.1 µM): 110 ± 16%; remaining activity at 1 µM (SIK2): 3%; remaining activity at 0.1 µM (PLK1): 97 ± 12%; remaining activity at 1 µM (PLK1; 1 µM): 74 ± 6%; Kinetics of activation of MAPKs including ERK1/2 and p38α/β [2]: no effect; TLR-stimulated phosphorylation of ERK1/2, JNK1/2, p38α/β MAPKs, MSK1/2, IKKα/β, TBK1 and their direct substrates [2]: occurred normally |
